Where two headings read alike, the source gives them in different places.
Assays:
[1] = biological target: EGFR (D770-N771 ins NPG T790M) kinase (Homo sapiens (Human), UniProt P00533, INS770NPG/T790M); assay: In-vitro enzyme experiment 1 (HTRF kinase assay), EGFR D770-N771 ins NPG T790M; assay type: biochemical
Description: (§1) The specific experiment was as follows: • 1. Preparation of 1× concentration kinase buffer • 1 volume of 5 times concentration of an enzyme buffer diluted with 4 volumes of distilled water; 5 mM magnesium chloride; 1 mM DTT; and 1 mM MnCl2. • 2. Test method of activity of compound • a) a compound diluent was transferred to each well of an assay plate (784075, Greiner) using Echo 550; • b) the assay plate was sealed and centrifuged at 1,000 g for 1 min; • c) 2×EGFR (D770-N771 ins NPG T790M) was prepared in a 1× kinase buffer; • d) 5 μl of the 2×EGFR (D770-N771 ins NPG T790M) was added to a 384-well assay plate (784075, Greiner); • e) the assay plate was centrifuged at 1,000 g for 30 s and incubated at room temperature for 10 min; • f) 2× TK-substrate-biotin (2 μM) and ATP were added to the 1× kinase buffer and mixed; • g) the reaction was started after adding 5 μl of the TK-substrate-biotin (2 μM) and ATP mixture; • h) the assay plate was centrifuged at 1,000 g for 30 s; and the assay plate was sealed and incubated at room temperature for 40 min; • i) 4× Sa-XL 665 was prepared in an HTRF detection buffer; • j) 5 μl of the Sa-XL 665 and 5 μl of a TK-antibody-cryptate were added to each well of the assay plate; • k) the assay plate was centrifuged at 1,000 g for 30 s and incubated at room temperature for 1 h; and • l) fluorescence signals at 615 nm (cryptate) and 665 nm (XL665) were read on an Envision 2104 reader. • 3. Data analysis • 3.1 Calculation of ratio (665/615 nm) of each well • 3.2 Calculation of inhibition rate
(§2) [formula] • 3.3 Calculation of IC50 value of compound and drawing dose-effect curve of compound • IC50 values were calculated using GraphPad 6.0 by applying a non-linear regression curve (dose-effect relationship-variable slope) of the logarithm of the compound concentration versus the inhibition rate.
Y=lowest value+(highest value−lowest value)/(1+10^((Log IC50−X)×slope)) • X: logarithm of inhibitor concentration; and Y: inhibition rate. • 3.4 Double test report • 3.4.1 After one tester completed a report, another tester again checked the report to ensure that data analysis was correct. • 3.4.2 The data was exported from the software and manually analyzed. • 3.4.2.1 The rate was converted into the inhibition rate. All the IC50 values were first calculated with the inhibition rate using Prism GraphPad 6.0. • 3.4.2.2 Then the IC50 value was recalculated using the ratio to check the accuracy of the analysis. • 3.4.3 The number of all the compounds was ensured to be correct.

[2] = biological target: EGFR D770-N771 ins NPG kinase (Homo sapiens (Human), UniProt P00533, INS770NPG); assay: In-vitro enzyme experiment 1 (HTRF kinase assay), D770-N771 ins NPG kinase; assay type: biochemical
[3] = system: KC-1362 BaF3-EGFR D770-N771 ins NPG cells; assay: Anti-proliferative activity on KC-1362 BaF3-EGFR D770-N771 ins NPG cells; assay type: cell-based; details: Ba/F3 EGFR
[4] = biological target: EGFR-Del19/T790M/C797S kinase (Homo sapiens, UniProt P00533, C797S/T790M, form not given); assay: In-vitro enzyme experiment 2 (HTRF kinase assay), EGFR Del19 T790M C797S; assay type: biochemical; details: read-out: enzyme inhibition IC50 (nM) EGFR-Del19/T790M/C797S
Description: as §1, with “Preparation of 1× concentration kinase buffer • 1 volume of 5 times concentration of an enzyme buffer diluted with 4 volumes of distilled water; 5 mM magnesium chloride; 1 mM DTT; and 1 mM MnCl2. • 2.” left out
as §2
The preparation of the kinase buffer, the test method of the activity of the compound, and the data analysis referred to the relevant definitions in example 117, wherein step c) of the test method of the activity of the compound was replaced by preparing 2×EGFR Del19 T790M C797S in the 1× kinase buffer.

[5] = system: KC-1474:PC-9 EGFR-Del19/T790M/C797S; assay: Cell proliferation inhibition experiment (CCK-8), KC-1474; assay type: cell-based; details: Homo sapiens, 72 h
Source text: (§3) Inhibition rate %=[(A0−AS)/(A0−AC)]×100%.

[6] = system: KC-0178:NCI-1975 EGFR-L858R/T790M/C797S; assay: Cell proliferation inhibition experiment (CCK-8), KC-0178; assay type: cell-based; details: Homo sapiens, 72 h
Source text: as §3

H1975 EGFR-L858R/T790M = assay: Cell proliferation inhibition experiment (CCK-8), H1975; assay type: cell-based; details: Homo sapiens, NCI-H1975, 72 h
Source text: as §3

A549 EGFR-WT = assay: Cell proliferation inhibition experiment (CCK-8), A549; details: Homo sapiens, A549, 72 h, read-out: cell proliferation inhibition IC50 (μM) A549, 72 h, CCK-8

Chain of EGFR (D770-N771 ins NPG T790M) kinase (P00533 other isoform, or with tags, fused parts or gaps T790M/del 1-668/ins NPG behind 770 limits assumed): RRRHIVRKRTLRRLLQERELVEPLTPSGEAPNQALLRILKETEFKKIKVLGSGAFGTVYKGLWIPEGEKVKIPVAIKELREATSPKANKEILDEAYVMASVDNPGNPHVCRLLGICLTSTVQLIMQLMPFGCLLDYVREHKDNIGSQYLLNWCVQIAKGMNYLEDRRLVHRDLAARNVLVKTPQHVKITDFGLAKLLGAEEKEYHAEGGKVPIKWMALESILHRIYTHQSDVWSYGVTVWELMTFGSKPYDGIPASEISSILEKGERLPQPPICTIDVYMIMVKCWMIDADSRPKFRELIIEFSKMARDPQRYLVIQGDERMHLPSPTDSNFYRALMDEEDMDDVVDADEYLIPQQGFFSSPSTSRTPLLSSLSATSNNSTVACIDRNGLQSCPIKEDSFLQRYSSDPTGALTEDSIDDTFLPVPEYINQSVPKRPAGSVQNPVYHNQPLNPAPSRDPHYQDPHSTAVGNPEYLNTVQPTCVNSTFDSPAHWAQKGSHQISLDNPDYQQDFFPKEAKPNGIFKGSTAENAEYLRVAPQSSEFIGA
Chain of EGFR D770-N771 ins NPG kinase (P00533 other isoform, or with tags, fused parts or gaps del 1-668/ins NPG behind 770 limits assumed): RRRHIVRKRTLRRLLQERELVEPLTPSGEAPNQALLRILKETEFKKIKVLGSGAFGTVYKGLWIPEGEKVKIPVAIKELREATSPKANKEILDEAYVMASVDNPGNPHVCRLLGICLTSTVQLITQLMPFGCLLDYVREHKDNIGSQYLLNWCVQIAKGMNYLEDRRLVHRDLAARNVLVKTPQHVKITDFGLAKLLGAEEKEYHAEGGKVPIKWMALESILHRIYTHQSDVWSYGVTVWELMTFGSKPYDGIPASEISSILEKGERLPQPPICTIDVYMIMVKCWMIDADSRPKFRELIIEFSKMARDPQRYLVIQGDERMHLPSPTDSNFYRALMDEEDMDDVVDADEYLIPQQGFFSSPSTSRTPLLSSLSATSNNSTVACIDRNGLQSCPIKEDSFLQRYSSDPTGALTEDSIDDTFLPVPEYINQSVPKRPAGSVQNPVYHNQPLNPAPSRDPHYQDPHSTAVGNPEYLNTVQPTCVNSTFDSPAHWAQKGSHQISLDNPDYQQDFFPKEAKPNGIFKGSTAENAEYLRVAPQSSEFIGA
Chain of EGFR-Del19/T790M/C797S kinase (P00533 25-1210 T790M/C797S limits assumed, form open): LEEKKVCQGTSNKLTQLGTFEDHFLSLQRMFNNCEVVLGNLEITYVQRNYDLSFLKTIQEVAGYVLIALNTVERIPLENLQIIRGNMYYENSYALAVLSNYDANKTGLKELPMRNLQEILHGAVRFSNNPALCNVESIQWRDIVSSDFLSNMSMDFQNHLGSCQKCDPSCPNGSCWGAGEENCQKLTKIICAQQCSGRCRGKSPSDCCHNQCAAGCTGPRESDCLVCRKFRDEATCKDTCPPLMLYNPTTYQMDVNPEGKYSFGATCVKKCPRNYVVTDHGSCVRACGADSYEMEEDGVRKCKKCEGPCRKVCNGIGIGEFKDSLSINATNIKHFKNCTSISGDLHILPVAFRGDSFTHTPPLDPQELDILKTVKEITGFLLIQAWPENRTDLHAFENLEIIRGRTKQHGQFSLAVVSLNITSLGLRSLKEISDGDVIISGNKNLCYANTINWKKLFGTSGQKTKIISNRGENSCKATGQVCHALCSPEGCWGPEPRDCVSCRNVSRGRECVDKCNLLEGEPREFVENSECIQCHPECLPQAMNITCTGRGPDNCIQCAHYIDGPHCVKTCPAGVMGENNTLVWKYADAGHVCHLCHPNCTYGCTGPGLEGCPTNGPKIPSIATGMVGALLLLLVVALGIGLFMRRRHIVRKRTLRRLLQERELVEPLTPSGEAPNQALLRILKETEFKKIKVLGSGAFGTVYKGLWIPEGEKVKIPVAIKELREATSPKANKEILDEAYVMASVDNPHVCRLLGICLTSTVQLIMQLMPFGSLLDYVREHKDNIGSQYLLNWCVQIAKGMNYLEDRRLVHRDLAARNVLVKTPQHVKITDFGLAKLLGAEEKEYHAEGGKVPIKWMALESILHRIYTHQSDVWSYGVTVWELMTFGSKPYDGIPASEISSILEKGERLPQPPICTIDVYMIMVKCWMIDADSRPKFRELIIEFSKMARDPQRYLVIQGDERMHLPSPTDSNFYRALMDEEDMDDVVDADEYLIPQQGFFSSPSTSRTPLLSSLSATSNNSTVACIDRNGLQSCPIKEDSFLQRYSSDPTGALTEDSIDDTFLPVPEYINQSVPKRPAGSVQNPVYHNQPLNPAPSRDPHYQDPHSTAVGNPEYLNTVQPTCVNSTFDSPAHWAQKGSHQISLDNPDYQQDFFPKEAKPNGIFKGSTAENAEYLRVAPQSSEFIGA

IC50 [1]: 8.8 nM
IC50 [2]: 2.82 nM
IC50 [3]: 70 nM
IC50 [4]: < 10 nM
IC50 [5]: < 0.1 µM
IC50 (H1975 EGFR-L858R/T790M): 0.1 to 1 µM
IC50 (A549 EGFR-WT): 0.1 to 1 µM
IC50 (A549 EGFR-WT; Table 5 numeric): 0.23 µM
Structure (SMILES): CN1CCN(c2ccc(Nc3nc(N[C@H]4CC[C@@H](CO)CC4)c4c(C(=O)c5ccc(F)cc5)c[nH]c4n3)cc2)CC1 [Example 60]
IC50 [6]: 1 to 2 µM
